# Experimental data reported in PubChem BioAssay AID1963433 (Molecular Pharmacology Branch, DTP, NCI, 2024).
# Test system: 772245-204-R-J1-PDC complex spheroid growth
# Experiment: Anticancer human tumor 772245-204-R-J1-PDC patient-derived rhabdomyosarcoma cell line growth inhibition [Asc]
# Conditions: for IC50: curve of first compound; for viability, T/C: stronger effect = lower value
# Procedure, shortened: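 Complex spheroids combining tumor cells with HUVEC endothelial cells and human MSCs, at 37 degrees C, 5% CO2; agents tested alone or combined, half-log dilutions from at or near clinical Cmax, or 10 microM if Cmax unknown.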
# [1] = second compound 0.1 µM, first compound 0.0316 µM
# [2] = second compound 0.1 µM, first compound 0.1 µM
# [3] = second compound 0.1 µM, first compound 0.316 µM
# [4] = second compound 0.1 µM, first compound 1 µM
# [5] = second compound 0.1 µM, first compound 3.16 µM
# [6] = second compound 0.1 µM, first compound 10 µM
# [7] = second compound 0.316 µM, first compound 0.0316 µM
# [8] = second compound 0.316 µM, first compound 0.1 µM
# [9] = second compound 0.316 µM, first compound 0.316 µM
# [10] = second compound 0.316 µM, first compound 1 µM
# [11] = second compound 0.316 µM, first compound 3.16 µM
# [12] = second compound 0.316 µM, first compound 10 µM
# [13] = second compound 1 µM, first compound 0.0316 µM
# [14] = second compound 1 µM, first compound 0.1 µM
# [15] = second compound 1 µM, first compound 0.316 µM
# [16] = second compound 1 µM, first compound 1 µM
# [17] = second compound 1 µM, first compound 3.16 µM
# [18] = second compound 1 µM, first compound 10 µM
# [19] = second compound 0.01 µM, first compound 0.0316 µM
# [20] = second compound 0.01 µM, first compound 0.1 µM
# [21] = second compound 0.01 µM, first compound 0.316 µM
# [22] = second compound 0.01 µM, first compound 1 µM
# [23] = second compound 0.0316 µM, first compound 0.0316 µM
# [24] = second compound 0.0316 µM, first compound 0.1 µM
# [25] = second compound 0.0316 µM, first compound 0.316 µM
# [26] = second compound 0.0316 µM, first compound 1 µM
# 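Also: compound exposure lasted seven days.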
# 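For viability, T/C in this document: 100% = DMSO vehicle control viability.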
structure (smiles),measurement,setting,value
CCN1C(C(=O)NC23CCC(C(=O)O)(CC2)CC3)C(c2cccc(Cl)c2F)C2(C(=O)Nc3cc(Cl)ccc32)C12CCCCC2 (stereo not given) + CNC(C)C(=O)NC1CN(S(=O)(=O)c2cccc(S(=O)(=O)N3CCC4CCC(C(=O)NC(c5ccccc5)c5ccccc5)N4C(=O)C(NC(=O)C(C)NC)C3)c2)CCC2CCC(C(=O)NC(c3ccccc3)c3ccccc3)N2C1=O,IC50,second compound 0.01 µM,> 3000 nM
same,IC50,second compound 0.0316 µM,> 3000 nM
same,IC50,second compound 0.1 µM,> 3000 nM
same,IC50,second compound 0.316 µM,> 3000 nM
same,IC50,second compound 1 µM,> 3000 nM
same,"viability, T/C","second compound 0.01 µM, first compound 0.00949 µM",103%
same,"viability, T/C","second compound 0.01 µM, first compound 0.03 µM",106%
same,"viability, T/C","second compound 0.01 µM, first compound 0.0949 µM",111%
same,"viability, T/C","second compound 0.01 µM, first compound 0.3 µM",96.1%
same,"viability, T/C","second compound 0.01 µM, first compound 0.949 µM",80.3%
same,"viability, T/C","second compound 0.01 µM, first compound 3 µM",77.4%
same,"viability, T/C","second compound 0.0316 µM, first compound 0.00949 µM",97.7%
same,"viability, T/C","second compound 0.0316 µM, first compound 0.03 µM",105%
same,"viability, T/C","second compound 0.0316 µM, first compound 0.0949 µM",98.2%
same,"viability, T/C","second compound 0.0316 µM, first compound 0.3 µM",90.9%
same,"viability, T/C","second compound 0.0316 µM, first compound 0.949 µM",93.3%
same,"viability, T/C","second compound 0.0316 µM, first compound 3 µM",75.7%
same,"viability, T/C","second compound 0.1 µM, first compound 0.00949 µM",97.9%
same,"viability, T/C","second compound 0.1 µM, first compound 0.03 µM",102%
same,"viability, T/C","second compound 0.1 µM, first compound 0.0949 µM",88.5%
same,"viability, T/C","second compound 0.1 µM, first compound 0.3 µM",91%
same,"viability, T/C","second compound 0.1 µM, first compound 0.949 µM",82.2%
same,"viability, T/C","second compound 0.1 µM, first compound 3 µM",65.2%
same,"viability, T/C","second compound 0.316 µM, first compound 0.00949 µM",96.6%
same,"viability, T/C","second compound 0.316 µM, first compound 0.03 µM",96.4%
same,"viability, T/C","second compound 0.316 µM, first compound 0.0949 µM",98.6%
same,"viability, T/C","second compound 0.316 µM, first compound 0.3 µM",92.3%
same,"viability, T/C","second compound 0.316 µM, first compound 0.949 µM",86.8%
same,"viability, T/C","second compound 0.316 µM, first compound 3 µM",105%
same,"viability, T/C","second compound 1 µM, first compound 0.00949 µM",103%
same,"viability, T/C","second compound 1 µM, first compound 0.03 µM",105%
same,"viability, T/C","second compound 1 µM, first compound 0.0949 µM",96.2%
same,"viability, T/C","second compound 1 µM, first compound 0.3 µM",89.1%
same,"viability, T/C","second compound 1 µM, first compound 0.949 µM",86.4%
same,"viability, T/C","second compound 1 µM, first compound 3 µM",76.3%
C#Cc1c(F)ccc2cc(O)cc(-c3ncc4c(N5CC6CCC(C5)N6)nc(OCC56CCCN5CC(F)C6)nc4c3F)c12 (stereo not given) + Cc1c(S(C)(=O)=O)c(-c2cc(F)cc(N3CCN(c4ccc(NS(=O)(=O)c5ccc(NC(CCN6CCC(C(=O)OCCCP(=O)(O)O)CC6)CSc6ccccc6)c(S(=O)(=O)C(F)(F)F)c5)cc4)CC3)c2)c(-c2ccc(Cl)cc2)n1C(C)C,IC50,second compound 0.1 µM,9710 nM
same,IC50,second compound 0.316 µM,2030 nM
same,IC50,second compound 1 µM,3740 nM
same,IC50,second compound 3.16 µM,< 31.6 nM
same,IC50,second compound 10 µM,1030 nM
same,"viability, T/C",[1],72.8%
same,"viability, T/C",[2],93.2%
same,"viability, T/C",[3],85.6%
same,"viability, T/C",[4],71.6%
same,"viability, T/C",[5],72.7%
same,"viability, T/C",[6],49%
same,"viability, T/C",[7],60.4%
same,"viability, T/C",[8],66.2%
same,"viability, T/C",[9],62.3%
same,"viability, T/C",[10],56%
same,"viability, T/C",[11],46.3%
same,"viability, T/C",[12],38.2%
same,"viability, T/C",[13],49.8%
same,"viability, T/C",[14],55.4%
same,"viability, T/C",[15],51.5%
same,"viability, T/C",[16],56.8%
same,"viability, T/C",[17],54.1%
same,"viability, T/C",[18],29.7%
same,"viability, T/C","second compound 3.16 µM, first compound 0.0316 µM",49.8%
same,"viability, T/C","second compound 3.16 µM, first compound 0.1 µM",46.7%
same,"viability, T/C","second compound 3.16 µM, first compound 0.316 µM",47.1%
same,"viability, T/C","second compound 3.16 µM, first compound 1 µM",37%
same,"viability, T/C","second compound 3.16 µM, first compound 3.16 µM",30.7%
same,"viability, T/C","second compound 3.16 µM, first compound 10 µM",13.8%
same,"viability, T/C","second compound 10 µM, first compound 0.0316 µM",44%
same,"viability, T/C","second compound 10 µM, first compound 0.1 µM",55.5%
same,"viability, T/C","second compound 10 µM, first compound 0.316 µM",44%
same,"viability, T/C","second compound 10 µM, first compound 1 µM",58.3%
same,"viability, T/C","second compound 10 µM, first compound 3.16 µM",34%
same,"viability, T/C","second compound 10 µM, first compound 10 µM",18.5%
C=CC(=O)N1CCN(c2nc(=O)n(-c3c(C)ccnc3C(C)C)c3nc(-c4c(O)cccc4F)c(F)cc23)C(C)C1 (stereo not given) + CNC(C)C(=O)NC1CN(S(=O)(=O)c2cccc(S(=O)(=O)N3CCC4CCC(C(=O)NC(c5ccccc5)c5ccccc5)N4C(=O)C(NC(=O)C(C)NC)C3)c2)CCC2CCC(C(=O)NC(c3ccccc3)c3ccccc3)N2C1=O,IC50,second compound 0.01 µM,> 10000 nM
same,IC50,second compound 0.0316 µM,> 10000 nM
same,IC50,second compound 0.1 µM,> 10000 nM
same,IC50,second compound 0.316 µM,> 10000 nM
same,IC50,second compound 1 µM,> 10000 nM
same,"viability, T/C",[19],98.5%
same,"viability, T/C",[20],84.7%
same,"viability, T/C",[21],91.6%
same,"viability, T/C",[22],100%
same,"viability, T/C","second compound 0.01 µM, first compound 3.16 µM",92%
same,"viability, T/C","second compound 0.01 µM, first compound 10 µM",89%
same,"viability, T/C",[23],94.4%
same,"viability, T/C",[24],93.6%
same,"viability, T/C",[25],101%
same,"viability, T/C",[26],92.7%
same,"viability, T/C","second compound 0.0316 µM, first compound 3.16 µM",101%
same,"viability, T/C","second compound 0.0316 µM, first compound 10 µM",90.6%
same,"viability, T/C",[1],92%
same,"viability, T/C",[2],88.9%
same,"viability, T/C",[3],108%
same,"viability, T/C",[4],97.2%
same,"viability, T/C",[5],88.8%
same,"viability, T/C",[6],92.2%
same,"viability, T/C",[7],94.5%
same,"viability, T/C",[8],95.5%
same,"viability, T/C",[9],97.6%
same,"viability, T/C",[10],103%
same,"viability, T/C",[11],95.7%
same,"viability, T/C",[12],80.1%
same,"viability, T/C",[13],106%
same,"viability, T/C",[14],94.3%
same,"viability, T/C",[15],101%
same,"viability, T/C",[16],97.2%
same,"viability, T/C",[17],88.9%
same,"viability, T/C",[18],95%
COc1c(OCCCN2CCOCC2)ccc2c3n(c(=NC(=O)c4cnc(N)nc4)nc12)CCN3 + CNC(C)C(=O)NC1CN(S(=O)(=O)c2cccc(S(=O)(=O)N3CCC4CCC(C(=O)NC(c5ccccc5)c5ccccc5)N4C(=O)C(NC(=O)C(C)NC)C3)c2)CCC2CCC(C(=O)NC(c3ccccc3)c3ccccc3)N2C1=O,IC50,second compound 0.01 µM,193 nM
same,IC50,second compound 0.0316 µM,89.5 nM
same,IC50,second compound 0.1 µM,114 nM
same,IC50,second compound 0.316 µM,72.6 nM
same,IC50,second compound 1 µM,111 nM
same,"viability, T/C","second compound 0.01 µM, first compound 0.00316 µM",108%
same,"viability, T/C","second compound 0.01 µM, first compound 0.01 µM",95.2%
same,"viability, T/C",[19],81.7%
same,"viability, T/C",[20],64.3%
same,"viability, T/C",[21],38.4%
same,"viability, T/C",[22],26.9%
same,"viability, T/C","second compound 0.0316 µM, first compound 0.00316 µM",93.7%
same,"viability, T/C","second compound 0.0316 µM, first compound 0.01 µM",112%
same,"viability, T/C",[23],78.2%
same,"viability, T/C",[24],47.9%
same,"viability, T/C",[25],38.8%
same,"viability, T/C",[26],27.2%
same,"viability, T/C","second compound 0.1 µM, first compound 0.00316 µM",97.4%
same,"viability, T/C","second compound 0.1 µM, first compound 0.01 µM",97.2%
same,"viability, T/C",[1],68.1%
same,"viability, T/C",[2],53.8%
same,"viability, T/C",[3],35.4%
same,"viability, T/C",[4],23.2%
same,"viability, T/C","second compound 0.316 µM, first compound 0.00316 µM",92.9%
same,"viability, T/C","second compound 0.316 µM, first compound 0.01 µM",93.8%
same,"viability, T/C",[7],73.4%
same,"viability, T/C",[8],40.1%
same,"viability, T/C",[9],30.7%
same,"viability, T/C",[10],22%
same,"viability, T/C","second compound 1 µM, first compound 0.00316 µM",86%
same,"viability, T/C","second compound 1 µM, first compound 0.01 µM",96.6%
same,"viability, T/C",[13],75.7%
same,"viability, T/C",[14],51.3%
same,"viability, T/C",[15],32.5%
same,"viability, T/C",[16],21.6%
